From patent US5410049A, “Benzodiazepine derivatives, compositions containing them and their use in therapy” (Merck Sharpe & Dohme Ltd., priority 1991, dated 1995) come the findings set out here.

One experiment deals with T1, CCK receptor (brain) (Cavia porcellus, UniProt H0VZC5).
T1 construct: the cortex was removed and homogenized in 25 mL ice-cold 0.32M sucrose; from tissue; host or cells: cortex of male Hartley guinea pigs (P2 membrane pellet)
T1 sequence (H0VZC5 1-426): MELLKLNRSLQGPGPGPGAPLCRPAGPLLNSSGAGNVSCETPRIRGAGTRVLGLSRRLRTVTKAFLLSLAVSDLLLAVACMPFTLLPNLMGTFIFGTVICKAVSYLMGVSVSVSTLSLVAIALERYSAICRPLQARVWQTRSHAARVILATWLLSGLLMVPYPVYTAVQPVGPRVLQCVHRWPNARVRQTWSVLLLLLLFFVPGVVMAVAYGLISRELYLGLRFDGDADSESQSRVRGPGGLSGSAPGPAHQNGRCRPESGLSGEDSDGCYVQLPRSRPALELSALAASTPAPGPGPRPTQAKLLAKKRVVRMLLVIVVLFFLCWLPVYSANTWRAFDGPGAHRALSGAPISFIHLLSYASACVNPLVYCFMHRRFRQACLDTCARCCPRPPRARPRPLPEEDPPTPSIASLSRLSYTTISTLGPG
Nature of the experiment: CCK Receptor Binding (Brain), inhibition of 125I-CCK-8 binding. Also on record: species or system guinea pig (male Hartley). As to conditions: guinea pig cortex membranes, 50 pM 125I-CCK-8, pH 6.5, 25° C., 2 hours. On the procedure: CCK-8 sulphated was radiolabelled and the binding was performed according to the description for the pancreas method with minor modifications.
Male Hartley guinea pigs (300-500 g) were sacrificed by decapitation and the cortex was removed and homogenized in 25 mL ice-cold 0.32M sucrose. The homogenates were centrifuged at 1000 g for 10 minutes and the resulting supernatant was recentrifuged at 20,000 g for 20 minutes. The P2 pellet was resuspended in binding assay buffer (20mM HEPES, 5 mM MgCl2, 0.25 mg/ml bacitracin, 1 mM EGTA pH 6.5 at 25° C.), using a Teflon (trademark) homogenizer (5 strokes at 500 rpm) to give a final concentration of 10 mg original wet weight/1.2 ml buffer. For the binding assay, 50 μl of buffer (for total binding) or unlabelled CCK-8 sulphated to give a final concentration of 1 μM (for nonspecific binding) or the compounds of Formula I (for determination of inhibition of ^125 I-CCK-8 binding) and 50 μl of 500 pM ^125 I-CCK-8 (i.e. final concentration of 50 pM) were added to 400 μl of the membrane suspensions in microfuge tubes. All assays were run in duplicate. The reaction mixtures were incubated at 25° C. for 2 hours and then the reaction was terminated by rapid filtration (Brandell 24 well cell harvester) on Whatman GF/C filters with 3×5 ml washes of cold 100 mM NaCl. The radioactivity on the filters was counted with a LKB gamma counter.
Drug displacement studies were performed with at least 10 concentrations of compounds of Formula I and the IC50 values were determined by regression analysis IC50 refers to the concentration of the compound required to inhibit 50% of specific binding of ^125 I-CCK-8.

Another experiment has as its target T2, CCK receptor (pancreas) (Rattus norvegicus, UniProt P30551).
T2 construct: The whole pancreas was dissected free of fat tissue and was homogenized; from tissue; host or cells: pancreas of male Sprague-Dawley rats (membrane homogenate)
T2 sequence (P30551 1-444): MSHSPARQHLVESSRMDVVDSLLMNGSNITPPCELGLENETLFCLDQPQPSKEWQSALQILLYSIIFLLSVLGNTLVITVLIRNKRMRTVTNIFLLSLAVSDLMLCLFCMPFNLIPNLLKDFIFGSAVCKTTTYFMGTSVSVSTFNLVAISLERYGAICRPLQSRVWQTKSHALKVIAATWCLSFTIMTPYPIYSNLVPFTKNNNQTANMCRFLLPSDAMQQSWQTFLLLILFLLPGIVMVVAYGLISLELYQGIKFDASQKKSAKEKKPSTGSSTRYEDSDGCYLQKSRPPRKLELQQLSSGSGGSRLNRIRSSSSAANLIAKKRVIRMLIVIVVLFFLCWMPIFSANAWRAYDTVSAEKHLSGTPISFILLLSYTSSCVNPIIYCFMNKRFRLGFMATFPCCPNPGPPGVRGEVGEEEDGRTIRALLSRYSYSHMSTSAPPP
Nature of the experiment: CCK Receptor Binding (Pancreas), inhibition of 125I-CCK-8 binding. More on the design: species or system rat (male Sprague-Dawley). On the procedure: Male Sprague-Dawley rats (150-200 g) were sacrificed by decapitation. The whole pancreas was dissected free of fat tissue and was homogenized in 25 volumes of ice-cold 10 mMN-2-hydroxyethyl-piperazine-N'-2-ethane sulphonic acid (HEPES) buffer with 0.1% soya bean trypsin inhibitor (pH 7.4 at 25° C.) with a Kinematica Polytron. The homogenates were centrifuged at 47,800 g for 10 min. Pellets were resuspended in 10 volumes of binding assay buffer (20mM (HEPES)), 1 mM ethylene glycol-bis-(β-aminoethylether-N,N'-tetraacetic acid) (EGTA), 5mM MgCl2, 150 mM NaCl, bacitracin 0.25 mg/ml, soya bean trypsin inhibitor 0.1 mg/ml, and bovine serum albumin 2 mg/ml pH 6.5 at 25° C.) using a Teflon (trademark) homogenizer, 15 strokes at 500 rpm. The homogenate was further diluted in binding assay buffer to give a final concentration of 0.5 mg original wet weight/1 ml buffer. […] All assays were run in duplicate. The reaction mixtures were incubated at 25° C. for 2 hours and the reaction terminated by rapid filtration (Brandell 24 well cell harvester) over Whatman GF/C filters, washing 3×4 mls with ice-cold 100 Mm NaCl. The radioactivity on the filters was counted with a LKB gamma counter.

The mark [1] stands for this setting: rat pancreas membranes, 50 pM 125I-CCK-8, pH 6.5, 25° C., 2 hours, read-out: CCK RECEPTOR BINDING RESULTS IC50, 125I-CCK Pancreas.

pIC50: −log10 of the molar value. Like-named read-outs stand apart in the source and are kept apart here.

Consider `CN1C(=O)[C@H](NC(=O)Nc2cccc(C3=C(O)CNC3=O)c2)N=C(c2ccccc2)c2ccccc21` [Example 3, N-[3(R)-2,3-Dihydro-1-methyl-2-oxo-5-phenyl-1H-1,4-benzodiazepin-3-yl]N'-[3-(2,5-dihydro-4-hydroxy-2-oxopyrrol-3-yl)phenyl]urea], for which the pIC50 on CCK receptor (brain) is 7.80; on CCK receptor (pancreas), less than 5.52.
Take `CN1C(=O)C(NC(=O)Nc2cccc(C3=C(O)CSC3=O)c2)N=C(C2CCCCC2)c2ccccc21` (racemic) [Example 1, N-[3(R,S)-5-Cyclohexyl-2,3,dihydro-1-methyl-2-oxo-1H-1,4-benzodiazepin-3-yl]N', [3-(2,5,dihydro-4-hydroxy-2-oxothien,3-yl)phenyl]urea]: the pIC50 is 8.41 at CCK receptor (brain) and 7.89 on CCK receptor (pancreas) (setting [1]).
Turning to `CN1CC(O)=C(c2cccc(NC(=O)NC3N=C(C4CCCCC4)c4ccccc4N(C)C3=O)c2)C1=O` (racemic) [Example 4, N-[3(R,S)-5-Cyclohexyl-2,3-dihydro-1-methyl-2-oxo-1H-1,4-benzodiazepin-3-yl]N'-[3-(2,5-dihydro-4-hydroxy-N-methyl-2-oxopyrrol-3-yl)phenyl]urea], the pIC50 at CCK receptor (brain) is 8.20; on CCK receptor (pancreas) (setting [1]), 7.25.
On to `CN1CC(O)=C(c2cccc(NC(=O)N[C@@H]3N=C(C4CCCCC4)c4ccccc4N(C)C3=O)c2)C1=O` [Example 5, N-[3(R)-5-Cyclohexyl-2,3-dihydro-1-methyl-2-oxo-1H-1,4-benzodiazepin-3-yl]N'-[3-(2,5-dihydro-4-hydroxy-N-methyl-2-oxopyrrol-3-yl)phenyl] urea], for which the pIC50 was 8.60 on CCK receptor (brain) and 6.55 on CCK receptor (pancreas) (setting [1]).
In the case of `CN1C(=O)C(NC(=O)Nc2cccc(C3=C(O)CNC3=O)c2)N=C(C2CCCCC2)c2ccccc21` (racemic) [Example 2, N-[3(R,S)-5-Cyclohexyl-2,3-dihydro-1-methyl-2-oxo-1H-1,4-benzodiazepin-3-yl]N'-[3-(2,5-dihydro-4-hydroxy-2-oxopyrrol-3-yl)phenyl]urea], the pIC50 is 8.54 at CCK receptor (brain) and 8.12 on CCK receptor (pancreas) (setting [1]).
Consider `CN1C(=O)[C@H](NC(=O)Nc2cccc(C3=C(O)CNC3=O)c2)N=C(C2CCCCC2)c2ccccc21` [Example 6, N-[3(R)-5-Cyclohexyl-2,3-dihydro-1-methyl-2-oxo-1H-1,4-benzodiazepin-3-yl]N'-[3-(2,5-dihydro-4-hydroxy-2oxopyrrol-3-yl)phenyl]urea], for which the results for the pIC50 at CCK receptor (brain) and at CCK receptor (pancreas) (setting [1]) were 9.17 and 6.96, respectively.

For orientation: pIC50 means −log10 of the IC50, conventionally taken in molar units.
